For 59 molecules, RP-LC retention time results are on record in the METLIN SMRT retention time set (Domingo-Almenara et al. 2019).

This series is described as follows: gradient 5% acetonitrile 3 min, to 50% in 2 min, to 85% in 15 min, held 3 min, 100 µL/min. The settings on record: column: Zorbax Extend-C18 2.1 x 50 mm; eluents: water / acetonitrile, 0.1% formic acid. The method, boiled down:
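Mixtures of ~100 pure standards were chromatographed on a Zorbax Extend-C18 column (2.1 × 50 mm, 1.8 μm) at 100 μL/min using water and acetonitrile, each with 0.1% formic acid. Detection used a quadrupole time-of-flight mass spectrometer in positive and negative ionization mode, and data collection spanned 3 months. Retention time was obtained from adduct peaks picked computationally and each checked manually.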
`Cc1c(C(=O)NC(C)C)cnn1-c1cc(-c2nc(C(C)C)no2)ccn1` showed an RP-LC retention time of 868 s.
`CC(C)NC(=O)c1cc(N2CCCC2)nc2ccccc12` had an RP-LC retention time of 594 s.
In turn, `Cc1noc(C)c1-c1ccc(S(=O)(=O)N2CCCc3ccccc32)cc1` gave an RP-LC retention time of 1060 s.
For the molecule `O=C1CCCc2cc(S(=O)(=O)N3CCC(C(=O)NCCc4cccs4)CC3)ccc2N1`, the RP-LC retention time came to 717 s.
The molecule `Cc1cc(NC(=O)C(C)C)nn1Cc1ccccc1` yielded an RP-LC retention time of 778 s.
The molecule `COCC1CCN(C(=O)COc2ccc(NC(=O)C3CC3)cn2)CC1` gave an RP-LC retention time of 650 s.
With `COc1ccccc1CNC(=O)c1nc2cccnc2n(CC(C)C)c1=O` the figure was 976 s.
The same measure for `O=C(Cn1ccc2sccc2c1=O)Nc1cccc(F)c1`: 746 s; for `COc1cccc(CNC(=O)C2(C)CCN(C(=O)Nc3cc(OC)c(OC)c(OC)c3)CC2)c1`: 732 s; for `CCn1nnc2ccc(-c3noc(-c4ccc(NC(C)=O)cc4)n3)cc21`: 807 s.
With `Cc1cc(C(=O)NCCn2ncc3c(=O)n(Cc4ccc(F)cc4)cnc32)c(C)o1` the figure was 705 s; with `CCN(CC)S(=O)(=O)c1ccc2c(c1)CC(C(=O)NCCN(C)C)N2C(C)=O` (centres undefined), 645 s.
Regarding `O=C(Cn1nc2ncccn2c1=O)NCc1ccco1`, the RP-LC retention time is 539 s.
With `COc1ccccc1-c1nc(Cn2nnc(-c3nc(-c4ccncc4)no3)c2C)c(C)o1` the figure was 872 s.
`CC(C)c1nccn1C1CN(C(=O)COc2ccc(F)cc2)C1` returned an RP-LC retention time of 573 s.
With `CCC1CN(S(=O)(=O)c2cc(-c3cc(C)no3)cs2)c2cc(Cl)ccc2O1` (centres undefined), the RP-LC retention time came out at 1240 s.
Regarding `CCC1CCCCN1C(=O)c1cnc2nc(C)ccc2c1Nc1cccc(SC)c1` (centres undefined), the RP-LC retention time was found to be 713 s.
`CCn1c(=O)oc2cc(-c3noc(-c4ccc(F)cc4Cl)n3)ccc21` displayed an RP-LC retention time of 1190 s.
`CCN(CC)C(=O)N1CC(Cn2c(C)cnc2-c2ccncc2)C1` showed an RP-LC retention time of 568 s.
In the case of `CCC(C)NC(=O)c1cn(CCOC)cc2c(=O)n(-c3ccccc3)nc1-2` (centres undefined), the RP-LC retention time was found to be 819 s.
In turn, `CC(C)N1C(=O)c2cccnc2Sc2cc(NC(=O)c3ccc4c(c3)OCO4)ccc21` had an RP-LC retention time of 878 s.
`Cc1cc(C(=O)Nc2ccccc2I)n(-c2ccccc2)n1` had an RP-LC retention time of 974 s.
As for `CCc1ccc(-c2ccc(=O)n(Cc3nc(-c4ccc5c(c4)OCO5)no3)n2)cc1`, the RP-LC retention time was 1080 s.
With `Cc1ccc(C)c(NC(=O)N2CCc3nc(-c4ccccc4)ncc3C2)c1` the figure was 924 s; with `CCOc1ccccc1NC(=O)Cn1cccc(-c2nc(-c3ccc(Br)cc3)no2)c1=O`, 1100 s.
As to `COc1cc(OC)c(NC(=O)N2CCC3(CC2)N=C(c2cccc(F)c2)C(=O)N3)cc1Cl`, the RP-LC retention time turned out to be 886 s.
For `Cc1ccc(-c2cc3c4nn(CC(=O)N5CCCC5)c(=O)n4ccn3n2)cc1C`, the RP-LC retention time was 842 s.
Molecule `O=C(NCC1CCOCC1)c1ccc2c(c1)OCO2` gave an RP-LC retention time of 655 s.
With `CCn1cc(C(=O)NCCn2c(C)cnc2C2CCC2)cn1` the figure was 557 s; with `COCc1cc(=O)n(CC(=O)Nc2cc(Cl)ccc2C)c(N2CCOCC2)n1`, 895 s.
The same measure for `Fc1cccc(CSc2ccc(-c3ccc4c(c3)OCO4)nn2)c1`: 1020 s.
The same measure for `O=c1n(Cc2cccc(C(F)(F)F)c2)nc2c(S(=O)(=O)N3CCc4ccccc4C3)cccn12`: 1010 s; for `Cc1cc(Br)ccc1NC(=O)C1CCN(C(=O)c2cccn2-c2cccnc2)CC1`: 763 s; for `O=C(CSCc1ccccc1)NCCS(=O)(=O)N1CCN(c2ncccn2)CC1`: 746 s.
For `CNC(=O)CSc1nc(-c2ccccc2)c(NC(=O)COc2ccccc2F)s1`, the RP-LC retention time was found to be 806 s.
The same measure for `CCOCc1nc(C2CCCN2S(=O)(=O)c2ccc3c(c2)CCC3)no1` (centres undefined): 1020 s.
With `Cc1ccc2nc(C3CN(C(=O)COc4ccc(Cl)cc4Cl)C3)[nH]c2c1` the figure was 610 s; with `CCCn1ccc2oc(C)c(C(=O)NC(C)c3ccc(C)cc3C)c2c1=O` (centres undefined), 1190 s.
The same measure for `Cc1nc2nc(-c3ccc(Cl)cc3)nn2c(C)c1CC(=O)N1CCCC1`: 780 s; for `O=C(NCc1ccccn1)C(=O)Nc1ccc(F)c(Cl)c1`: 632 s; for `Cc1ccc(-c2noc(-c3nn(CC(=O)N4CCCC4)c4ccccc34)n2)cc1`: 1080 s.
As to `Cc1cc(N2CCN(C(=O)Nc3cccc(C(F)(F)F)c3)CC2)nc(N2CCCCC2)n1`, the RP-LC retention time was 789 s.
`CC(C)N1CCN(C(=O)c2cn(-c3ccc(-c4nc(C(C)(C)C)no4)cn3)cn2)CC1` had an RP-LC retention time of 671 s.
`COCC1CN(C(=O)c2ccoc2C)CCC1(F)F` (centres undefined) yielded an RP-LC retention time of 729 s.
The same measure for `Cc1ccc2nc(-c3ccc(C)c(NC(=O)C(C)(C)C)c3)[nH]c2c1`: 680 s; for `CCN1C(=O)c2c(C(=O)NCCCc3ccccc3)ncn2CC1(C)C(=O)NC1CCCC1` (centres undefined): 822 s.
`Cc1cc(=O)n(CC(=O)NCc2ccccc2)c(N(C)Cc2ccccc2)n1` showed an RP-LC retention time of 684 s.
With `Cc1nn(-c2ccccc2)c2c1N(CC(=O)NCCC1=CCCCC1)C(=O)CS2` the figure was 811 s.
Regarding `COc1ccc(-n2nnc(C(=O)O)c2-c2ccncc2)cc1`, the RP-LC retention time is 592 s.
The same measure for `O=C(Nc1cccc(Cl)c1)N1CCC(n2cnc3cc(F)ccc3c2=O)CC1`: 858 s; for `O=C(C1CCCN(c2nnc(-n3cccc3)s2)C1)N1CCN(c2ccc(F)cc2)CC1` (centres undefined): 950 s; for `COc1ccc(Cl)cc1NC(=O)c1cnc(N2CCN(c3ncccn3)CC2)c2ccccc12`: 1090 s.
In turn, `CCCN1CCn2cc(C(=O)NCc3ccc(C(C)C)cc3)nc2C1` displayed an RP-LC retention time of 665 s.
The molecule `Cc1noc(C)c1CNC(=O)c1ccc2ncccc2c1` yielded an RP-LC retention time of 753 s.
As for `Cc1nn(-c2ccc(N3CCOCC3)nn2)c(C)c1CCC(=O)N1CCN(c2ccccn2)CC1`, the RP-LC retention time was determined as 578 s.
Turning to `Cc1nc(-c2ccncc2)nc2c1CCC(=O)N2CCc1ccccn1`, the RP-LC retention time was 541 s.
Molecule `COc1cc(C(=O)Nc2nnc(SCc3nnc(-c4ccccc4)o3)s2)cc(OC)c1OC` gave an RP-LC retention time of 871 s.
With `O=C(Nc1cccc(-c2noc(C3CC3)n2)c1)c1n[nH]c2c1CCCC2` the figure was 941 s.
The same measure for `CCOC(=O)c1cc(C2CC2)nc2c1c(=O)n(Cc1ccc(OC)cc1)c(=O)n2C`: 1170 s.
